Test results from ChEMBL document CHEMBL3856199, “Melanoma-targeted delivery system (part 2): Synthesis, radioiodination and biological evaluation in B16F0 bearing mice” (Eur J Med Chem, 2016).

Tests used:
[1] = Drug uptake in abdomen of C57BL/6J mouse implanted with mouse B16F0 cells at 3.7 MBq, iv measured at 1 hr post injection by scintigraphic imaging analysis; format: ADME, organism-based; conditions: in vivo
[2] = Drug uptake in tumor of C57BL/6J mouse implanted with mouse B16F0 cells at 3.7 MBq, iv measured at 6 hrs post injection by gamma counting analysis; format: ADME, organism-based, Neoplasm; conditions: in vivo
[3] = Drug uptake in tumor of C57BL/6J mouse implanted with mouse B16F0 cells at 3.7 MBq, iv measured at 24 hrs post injection by gamma counting analysis; format: ADME, organism-based, Neoplasm; conditions: in vivo
[4] = Drug uptake in tumor of C57BL/6J mouse implanted with mouse B16F0 cells at 3.7 MBq, iv measured at 72 hrs post injection by gamma counting analysis; format: ADME, organism-based, Neoplasm; conditions: in vivo
[5] = Drug uptake in liver of C57BL/6J mouse implanted with mouse B16F0 cells at 3.7 MBq, iv measured at 72 hrs post injection by gamma counting analysis; format: ADME, organism-based; conditions: in vivo
[6] = Drug uptake in kidney of C57BL/6J mouse implanted with mouse B16F0 cells at 3.7 MBq, iv measured at 6 hrs post injection by gamma counting analysis; format: ADME, organism-based; conditions: in vivo
[7] = Drug uptake in kidney of C57BL/6J mouse implanted with mouse B16F0 cells at 3.7 MBq, iv measured at 72 hrs post injection by gamma counting analysis; format: ADME, organism-based; conditions: in vivo
[8] = Drug uptake in stomach of C57BL/6J mouse implanted with mouse B16F0 cells at 3.7 MBq, iv measured at 1 hr post injection by gamma counting analysis; format: ADME, organism-based; conditions: in vivo
[9] = Drug uptake in stomach of C57BL/6J mouse implanted with mouse B16F0 cells at 3.7 MBq, iv measured at 3 hrs post injection by gamma counting analysis; format: ADME, organism-based; conditions: in vivo
[10] = Drug uptake in intestine of C57BL/6J mouse implanted with mouse B16F0 cells at 3.7 MBq, iv measured at 24 hrs post injection by gamma counting analysis; format: ADME, organism-based; conditions: in vivo
[11] = Drug uptake in thyroid/submaxillary glands of C57BL/6J mouse implanted with mouse B16F0 cells at 3.7 MBq, iv measured at 1 hr post injection by gamma counting analysis; format: ADME, organism-based, Submaxillary gland/Thyroid; conditions: in vivo
[12] = Drug uptake in thyroid/submaxillary glands of C57BL/6J mouse implanted with mouse B16F0 cells at 3.7 MBq, iv measured at 3 hrs post injection by gamma counting analysis; format: ADME, organism-based, Submaxillary gland/Thyroid; conditions: in vivo
[13] = Drug uptake in thyroid/submaxillary glands of C57BL/6J mouse implanted with mouse B16F0 cells at 3.7 MBq, iv measured at 6 hrs post injection by gamma counting analysis; format: ADME, organism-based, Submaxillary gland/Thyroid; conditions: in vivo
[14] = Drug uptake in thyroid/submaxillary glands of C57BL/6J mouse implanted with mouse B16F0 cells at 3.7 MBq, iv measured at 24 hrs post injection by gamma counting analysis; format: ADME, organism-based, Submaxillary gland/Thyroid; conditions: in vivo
[15] = Drug uptake in thyroid/submaxillary glands of C57BL/6J mouse implanted with mouse B16F0 cells at 3.7 MBq, iv measured at 72 hrs post injection by gamma counting analysis; format: ADME, organism-based, Submaxillary gland/Thyroid; conditions: in vivo
[16] = Drug uptake in blood of C57BL/6J mouse implanted with mouse B16F0 cells at 3.7 MBq, iv measured at 24 hrs post injection by gamma counting analysis; format: ADME, organism-based; conditions: in vivo
[17] = Drug uptake in blood of C57BL/6J mouse implanted with mouse B16F0 cells at 3.7 MBq, iv measured at 72 hrs post injection by gamma counting analysis; format: ADME, organism-based; conditions: in vivo
[18] = Drug uptake in muscles of C57BL/6J mouse implanted with mouse B16F0 cells at 3.7 MBq, iv measured at 1 hr post injection by gamma counting analysis; format: ADME, organism-based, Muscle tissue; conditions: in vivo
Mus musculus = test: Toxicity in C57BL/6J mouse assessed as closed eyes at 3.7 MBq, iv measured up to 72 hrs post injection; format: organism-based; conditions: in vivo
[19] = Ratio of drug uptake in tumor to blood in C57BL/6J mouse implanted with mouse B16F0 cells at 3.7 MBq, iv measured at 6 hrs post injection; format: ADME, organism-based; conditions: tumour
[20] = Ratio of drug uptake in tumor to blood in C57BL/6J mouse implanted with mouse B16F0 cells at 3.7 MBq, iv measured at 72 hrs post injection; format: ADME, organism-based
[21] = Ratio of drug uptake in tumor to muscle in C57BL/6J mouse implanted with mouse B16F0 cells at 3.7 MBq, iv measured at 6 hrs post injection; format: ADME, organism-based; conditions: in vivo
[22] = Drug level in urine of C57BL/6J mouse implanted with mouse B16F0 cells treated with [125I]IUdR-SS-MTP at 3.7 MBq, iv measured at 15 to 60 mins post injection by RP-HPLC analysis; format: ADME, organism-based; conditions: in vivo
[23] = Drug level in blood of C57BL/6J mouse implanted with mouse B16F0 cells treated with [125I]IUdR-SS-MTP at 3.7 MBq, iv measured at 15 to 60 mins post injection by RP-HPLC analysis; format: ADME, organism-based; conditions: in vivo
[24] = Drug level in tumor of C57BL/6J mouse implanted with mouse B16F0 cells treated with [125I]IUdR-SS-MTP at 3.7 MBq, iv measured at 15 to 60 mins post injection by RP-HPLC analysis; format: ADME, organism-based, Neoplasm; conditions: in vivo

| Drug uptake [1] | Drug uptake [2] [% ID/g] | Drug uptake [3] [% ID/g] | Drug uptake [4] [% ID/g] | Drug uptake [5] [% ID/g] | Drug uptake [6] [% ID/g] | Drug uptake [7] [% ID/g] | Drug uptake [8] [% ID/g] | Drug uptake [9] [% ID/g] | Drug uptake [10] [% ID/g] | Drug uptake [11] [% ID/g] | Drug uptake [12] [% ID/g] | Drug uptake [13] [% ID/g] | Drug uptake [14] [% ID/g] | Drug uptake [15] [% ID/g] | Drug uptake [16] [% ID/g] | Drug uptake [17] [% ID/g] | Drug uptake [18] [% ID/g] | Ratio [19] | SMILES | Activity (Mus musculus) | other results |
| --- | --- | --- | --- | --- | --- | --- | --- | --- | --- | --- | --- | --- | --- | --- | --- | --- | --- | --- | --- | --- | --- |
| Active | 1.19 | 0.46 | 0.33 | 0.04 | 0.38 | 0.08 | 18.09 | 12.33 | 0.34 | 13.63 | 14.55 | 14.26 | 22.45 | 4.17 | 0.07 | 0.02 | 1.13 | 2.58 | O=c1[nH]c(=O)n([C@H]2C[C@H](O)[C@@H](CO)O2)cc1[125I] | Non-Toxic | Kp at 72 h [20]: 14.4; Ratio [21]: 10.66; Drug metabolism [22]: Metabolite_Detected; Drug metabolism [23]: Metabolite_Detected; Drug metabolism [24]: Metabolite_Detected |
| Active | 1.94 | 0.72 | 0.37 | 0.11 | 0.87 | 0.32 | 19.21 | 27.07 | 0.4 | 11.05 | 20.47 | 26.6 | 19.5 | 11.36 | 0.13 | 1.94 | 0.47 | 2.08 | CCN(CC)CCNC(=O)c1cnc2cc(NC(=O)COc3ccc(SSCCOC(=O)O[C@H]4C[C@H](n5cc([125I])c(=O)[nH]c5=O)O[C@@H]4CO)cc3)ccc2n1 | Non-Toxic | Kp at 72 h [20]: 1.12; Ratio [21]: 12.3 |
